Source: ChEMBL document CHEMBL3864153, “Metabolism-based structure optimization: Discovery of a potent and orally available tyrosine kinase ALK inhibitor bearing the tetracyclic benzo[b]carbazolone core” (Bioorg Med Chem Lett, 2016)
Each block holds one molecule with its values, some of them ahead of it. Active and inactive are the calls of the source. No cut-off for these calls is given here.

Legend:
[1] = target: Voltage-gated inwardly rectifying potassium channel KCNH2 (Homo sapiens, UniProt Q12809); assay: Inhibition of human ERG
Sequence of Voltage-gated inwardly rectifying potassium channel KCNH2 (Q12809 whole entry): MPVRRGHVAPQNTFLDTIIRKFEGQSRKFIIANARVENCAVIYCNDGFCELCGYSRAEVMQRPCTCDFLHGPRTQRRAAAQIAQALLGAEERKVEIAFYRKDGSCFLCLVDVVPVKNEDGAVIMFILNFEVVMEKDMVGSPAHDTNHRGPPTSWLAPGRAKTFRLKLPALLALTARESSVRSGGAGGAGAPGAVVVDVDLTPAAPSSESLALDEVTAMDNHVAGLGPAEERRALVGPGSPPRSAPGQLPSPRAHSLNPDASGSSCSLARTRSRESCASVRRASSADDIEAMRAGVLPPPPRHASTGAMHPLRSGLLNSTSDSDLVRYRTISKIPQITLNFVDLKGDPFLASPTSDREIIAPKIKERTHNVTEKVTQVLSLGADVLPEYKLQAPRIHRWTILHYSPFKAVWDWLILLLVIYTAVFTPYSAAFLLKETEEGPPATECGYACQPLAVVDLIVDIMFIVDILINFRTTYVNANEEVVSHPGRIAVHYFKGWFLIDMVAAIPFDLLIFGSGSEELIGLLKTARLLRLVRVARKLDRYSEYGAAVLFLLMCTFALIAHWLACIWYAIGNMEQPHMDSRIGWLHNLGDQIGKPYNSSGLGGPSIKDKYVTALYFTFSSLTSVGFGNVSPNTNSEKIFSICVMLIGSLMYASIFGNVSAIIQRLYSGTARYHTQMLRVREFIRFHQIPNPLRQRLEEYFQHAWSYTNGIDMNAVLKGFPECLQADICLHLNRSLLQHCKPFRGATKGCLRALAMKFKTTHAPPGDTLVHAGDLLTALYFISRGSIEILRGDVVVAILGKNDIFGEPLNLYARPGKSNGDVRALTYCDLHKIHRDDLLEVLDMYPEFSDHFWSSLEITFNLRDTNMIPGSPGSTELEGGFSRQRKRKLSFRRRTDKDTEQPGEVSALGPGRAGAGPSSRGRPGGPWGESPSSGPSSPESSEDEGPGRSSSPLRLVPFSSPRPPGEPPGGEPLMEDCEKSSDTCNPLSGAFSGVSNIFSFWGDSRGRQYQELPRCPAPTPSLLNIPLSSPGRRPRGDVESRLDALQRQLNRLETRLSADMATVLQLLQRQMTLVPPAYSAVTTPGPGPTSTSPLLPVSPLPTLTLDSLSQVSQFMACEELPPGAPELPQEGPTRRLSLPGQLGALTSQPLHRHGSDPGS

[2] = target: T1, ALK tyrosine kinase receptor (Homo sapiens, UniProt Q9UM73); assay: Inhibition of recombinant wild type ALK (unknown origin) using poly (Glu,Tyr)4:1 as substrate after 60 mins by ELISA
Target sequence in this assay (Q9UM73 whole entry): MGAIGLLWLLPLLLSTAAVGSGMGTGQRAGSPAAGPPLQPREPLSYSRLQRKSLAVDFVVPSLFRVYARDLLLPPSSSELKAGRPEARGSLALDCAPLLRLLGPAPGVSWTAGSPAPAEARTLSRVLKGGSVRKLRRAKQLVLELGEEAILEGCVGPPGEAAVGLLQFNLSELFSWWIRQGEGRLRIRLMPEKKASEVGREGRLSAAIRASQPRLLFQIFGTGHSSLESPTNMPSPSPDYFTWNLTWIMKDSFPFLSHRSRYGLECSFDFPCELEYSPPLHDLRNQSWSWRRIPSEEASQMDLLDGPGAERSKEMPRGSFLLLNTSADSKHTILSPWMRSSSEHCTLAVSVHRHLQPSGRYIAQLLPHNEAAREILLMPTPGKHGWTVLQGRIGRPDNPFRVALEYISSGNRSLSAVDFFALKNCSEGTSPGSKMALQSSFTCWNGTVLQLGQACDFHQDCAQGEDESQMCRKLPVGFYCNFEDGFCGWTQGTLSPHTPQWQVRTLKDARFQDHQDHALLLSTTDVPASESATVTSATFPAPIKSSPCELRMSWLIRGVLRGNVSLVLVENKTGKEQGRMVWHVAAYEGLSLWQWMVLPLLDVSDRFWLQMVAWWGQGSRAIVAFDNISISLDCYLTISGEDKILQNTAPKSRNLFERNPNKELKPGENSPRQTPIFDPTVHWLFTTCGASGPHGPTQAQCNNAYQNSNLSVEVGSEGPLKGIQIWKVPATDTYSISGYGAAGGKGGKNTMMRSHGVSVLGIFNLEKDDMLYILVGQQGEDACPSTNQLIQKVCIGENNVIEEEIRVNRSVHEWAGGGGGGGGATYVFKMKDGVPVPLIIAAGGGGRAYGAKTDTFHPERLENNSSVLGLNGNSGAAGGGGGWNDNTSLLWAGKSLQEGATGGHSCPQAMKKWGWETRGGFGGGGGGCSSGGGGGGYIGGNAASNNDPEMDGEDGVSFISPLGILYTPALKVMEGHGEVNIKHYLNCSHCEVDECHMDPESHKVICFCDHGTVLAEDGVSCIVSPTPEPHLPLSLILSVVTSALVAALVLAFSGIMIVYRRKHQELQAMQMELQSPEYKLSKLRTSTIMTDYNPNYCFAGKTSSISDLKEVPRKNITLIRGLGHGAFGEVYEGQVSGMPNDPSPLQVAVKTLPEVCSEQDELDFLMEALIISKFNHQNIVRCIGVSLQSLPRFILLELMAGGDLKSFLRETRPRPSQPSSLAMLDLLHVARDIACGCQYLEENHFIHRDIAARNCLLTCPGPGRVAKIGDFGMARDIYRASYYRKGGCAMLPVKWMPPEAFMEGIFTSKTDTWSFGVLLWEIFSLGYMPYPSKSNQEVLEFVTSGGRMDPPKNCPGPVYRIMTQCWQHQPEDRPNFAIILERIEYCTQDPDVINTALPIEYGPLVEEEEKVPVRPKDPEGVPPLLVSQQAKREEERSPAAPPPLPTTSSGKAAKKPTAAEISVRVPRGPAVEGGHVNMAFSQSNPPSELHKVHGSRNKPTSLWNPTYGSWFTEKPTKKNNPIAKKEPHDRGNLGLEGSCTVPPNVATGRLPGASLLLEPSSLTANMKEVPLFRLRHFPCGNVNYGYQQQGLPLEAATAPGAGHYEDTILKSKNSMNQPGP

[3] = Antiproliferative activity against ALK constitutively activated human NCI-H3122 cells at 50 nM after 72 hrs by SRB or CCK8 assay relative to control; type: functional; conditions: NCI-H3122, 72 h
[4] = Drug level in rat liver microsomes treated with 9-Ethyl-8-(4-((4-hydroxytetrahydro-2H-pyran-4-yl)methyl)piperazin-1-yl)-6,6-dimethyl-11-oxo-6,11-dihydro-5H-benzo[b]carbazole-3-carbonitrile after 3 hrs; type: ADME
[5] = target: ALK tyrosine kinase receptor (Homo sapiens, UniProt Q9UM73, L1196M); assay: Inhibition of recombinant ALK L1196M mutant (unknown origin) using poly (Glu,Tyr)4:1 as substrate after 60 mins by ELISA
Sequence of ALK tyrosine kinase receptor (Homo sapiens, UniProt Q9UM73, L1196M) (Q9UM73 19-1620 L1196M limits assumed): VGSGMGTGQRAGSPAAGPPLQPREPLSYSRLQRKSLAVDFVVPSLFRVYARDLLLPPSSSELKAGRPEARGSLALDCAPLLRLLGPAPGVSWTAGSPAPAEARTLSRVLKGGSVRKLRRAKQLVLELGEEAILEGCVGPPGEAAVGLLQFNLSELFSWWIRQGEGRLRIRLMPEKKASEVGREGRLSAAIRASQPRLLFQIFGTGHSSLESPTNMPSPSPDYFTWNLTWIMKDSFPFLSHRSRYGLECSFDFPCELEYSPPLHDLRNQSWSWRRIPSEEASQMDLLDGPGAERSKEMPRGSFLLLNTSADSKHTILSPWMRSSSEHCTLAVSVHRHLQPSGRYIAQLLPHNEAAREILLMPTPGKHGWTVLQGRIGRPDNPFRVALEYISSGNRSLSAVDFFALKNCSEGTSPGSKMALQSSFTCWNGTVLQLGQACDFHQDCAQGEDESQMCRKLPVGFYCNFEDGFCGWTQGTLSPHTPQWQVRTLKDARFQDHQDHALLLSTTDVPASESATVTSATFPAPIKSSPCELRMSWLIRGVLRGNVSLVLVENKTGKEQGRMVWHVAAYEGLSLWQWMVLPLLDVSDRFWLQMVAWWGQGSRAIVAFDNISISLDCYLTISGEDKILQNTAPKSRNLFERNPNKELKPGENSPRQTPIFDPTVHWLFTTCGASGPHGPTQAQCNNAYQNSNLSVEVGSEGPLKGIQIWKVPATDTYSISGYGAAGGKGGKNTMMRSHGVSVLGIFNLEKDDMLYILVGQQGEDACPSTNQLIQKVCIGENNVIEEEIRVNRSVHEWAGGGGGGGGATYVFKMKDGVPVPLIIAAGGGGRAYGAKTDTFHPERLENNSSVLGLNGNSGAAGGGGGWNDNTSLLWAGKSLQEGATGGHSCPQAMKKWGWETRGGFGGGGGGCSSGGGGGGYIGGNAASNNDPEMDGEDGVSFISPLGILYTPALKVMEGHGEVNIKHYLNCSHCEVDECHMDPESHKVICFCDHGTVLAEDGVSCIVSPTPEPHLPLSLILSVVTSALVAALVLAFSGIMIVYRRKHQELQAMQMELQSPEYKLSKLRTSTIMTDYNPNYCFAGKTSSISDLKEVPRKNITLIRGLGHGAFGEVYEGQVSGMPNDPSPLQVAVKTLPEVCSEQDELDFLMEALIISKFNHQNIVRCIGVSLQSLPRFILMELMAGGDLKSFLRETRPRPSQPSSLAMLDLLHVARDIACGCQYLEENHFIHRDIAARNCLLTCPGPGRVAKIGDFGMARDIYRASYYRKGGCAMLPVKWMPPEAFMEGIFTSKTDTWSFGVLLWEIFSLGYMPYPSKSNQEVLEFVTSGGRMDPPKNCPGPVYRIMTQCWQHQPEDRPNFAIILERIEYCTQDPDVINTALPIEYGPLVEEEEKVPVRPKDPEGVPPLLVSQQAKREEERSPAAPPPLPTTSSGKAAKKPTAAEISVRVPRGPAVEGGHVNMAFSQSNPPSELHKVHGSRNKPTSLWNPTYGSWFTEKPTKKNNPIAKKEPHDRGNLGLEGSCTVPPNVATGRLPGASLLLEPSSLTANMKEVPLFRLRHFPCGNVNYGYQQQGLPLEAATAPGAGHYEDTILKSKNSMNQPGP

[6] = Antiproliferative activity against ALK constitutively activated human NCI-H3122 cells after 72 hrs by SRB or CCK8 assay; conditions: NCI-H3122, 72 h
[7] = Antiproliferative activity against ALK constitutively activated human SU-DHL1 cells after 72 hrs by SRB or CCK8 assay; conditions: SU-DHL-1, 72 h
[8] = Antiproliferative activity against ALK constitutively activated human KARPAS299 cells after 72 hrs by SRB or CCK8 assay; conditions: KARPAS-299, 72 h
[9] = target: Vascular endothelial growth factor receptor 2 (Homo sapiens, UniProt P35968); assay: Inhibition of recombinant KDR (unknown origin) using poly (Glu,Tyr)4:1 as substrate after 60 mins by ELISA
[10] = target: Platelet-derived growth factor receptor alpha (Homo sapiens, UniProt P16234); assay: Inhibition of recombinant PDGFR-alpha (unknown origin) using poly (Glu,Tyr)4:1 as substrate after 60 mins by ELISA
[11] = target: Platelet-derived growth factor receptor beta (Homo sapiens, UniProt P09619); assay: Inhibition of recombinant PDGFR-beta (unknown origin) using poly (Glu,Tyr)4:1 as substrate after 60 mins by ELISA
[12] = target: Insulin-like growth factor 1 receptor (Homo sapiens, UniProt P08069); assay: Inhibition of recombinant IGF1R (unknown origin) using poly (Glu,Tyr)4:1 as substrate after 60 mins by ELISA
[13] = target: Epidermal growth factor receptor (Homo sapiens, UniProt P00533); assay: Inhibition of recombinant EGFR (unknown origin) using poly (Glu,Tyr)4:1 as substrate after 60 mins by ELISA
[14] = target: Receptor tyrosine-protein kinase erbB-2 (Homo sapiens, UniProt P04626); assay: Inhibition of recombinant ErbB2 (unknown origin) using poly (Glu,Tyr)4:1 as substrate after 60 mins by ELISA
[15] = target: Receptor tyrosine-protein kinase erbB-4 (Homo sapiens, UniProt Q15303); assay: Inhibition of recombinant ErbB4 (unknown origin) using poly (Glu,Tyr)4:1 as substrate after 60 mins by ELISA
[16] = target: Tyrosine-protein kinase ABL1 (Homo sapiens, UniProt P00519); assay: Inhibition of recombinant ABL (unknown origin) using poly (Glu,Tyr)4:1 as substrate after 60 mins by ELISA
Ephrin type-A receptor 2 = Ephrin type-A receptor 2 (Homo sapiens, UniProt P29317); assay: Inhibition of recombinant EPHA2 (unknown origin) using poly (Glu,Tyr)4:1 as substrate after 60 mins by ELISA
[17] = target: Proto-oncogene tyrosine-protein kinase Src (Homo sapiens, UniProt P12931); assay: Inhibition of recombinant c-Src (unknown origin) using poly (Glu,Tyr)4:1 as substrate after 60 mins by ELISA
Sequence of Proto-oncogene tyrosine-protein kinase Src (P12931 2-536 limits assumed): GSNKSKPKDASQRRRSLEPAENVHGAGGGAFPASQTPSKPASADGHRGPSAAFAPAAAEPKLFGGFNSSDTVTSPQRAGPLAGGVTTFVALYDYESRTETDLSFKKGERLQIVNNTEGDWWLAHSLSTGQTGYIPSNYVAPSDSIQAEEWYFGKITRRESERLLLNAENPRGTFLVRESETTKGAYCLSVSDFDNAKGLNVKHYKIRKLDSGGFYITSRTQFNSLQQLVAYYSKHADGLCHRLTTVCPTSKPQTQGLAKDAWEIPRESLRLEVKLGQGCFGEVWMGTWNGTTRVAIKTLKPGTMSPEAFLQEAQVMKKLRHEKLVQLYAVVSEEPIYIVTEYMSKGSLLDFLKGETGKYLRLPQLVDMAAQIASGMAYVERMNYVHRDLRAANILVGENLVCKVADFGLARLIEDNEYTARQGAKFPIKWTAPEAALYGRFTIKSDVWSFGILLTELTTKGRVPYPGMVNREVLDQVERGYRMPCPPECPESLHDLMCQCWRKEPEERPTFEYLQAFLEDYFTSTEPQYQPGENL

[18] = target: Mast/stem cell growth factor receptor Kit (Homo sapiens, UniProt P10721); assay: Inhibition of recombinant c-Kit (unknown origin) using poly (Glu,Tyr)4:1 as substrate after 60 mins by ELISA
[19] = Half life in Sprague-Dawley rat at 5 mg/kg, iv; type: ADME, organism-based; conditions: in vivo
[20] = AUC (0 to infinity) in Sprague-Dawley rat at 5 mg/kg, iv; type: ADME, organism-based; parameters: dose 5 mg/kg, time infinity, route intravenous; conditions: in vivo
[21] = Volume of distribution in Sprague-Dawley rat at 5 mg/kg, iv; type: ADME, organism-based; conditions: in vivo
[22] = Clearance in Sprague-Dawley rat at 5 mg/kg, iv; type: ADME, organism-based; conditions: in vivo
[23] = Cmax in Sprague-Dawley rat at 10 mg/kg, po; type: ADME, organism-based; parameters: dose 10 mg/kg, route oral; conditions: in vivo
[24] = Tmax in Sprague-Dawley rat at 10 mg/kg, po; type: ADME, organism-based; conditions: in vivo
[25] = AUC (0 to infinity) in Sprague-Dawley rat at 10 mg/kg, po; type: ADME, organism-based; parameters: dose 10 mg/kg, time infinity, route oral; conditions: in vivo
[26] = Oral bioavailability in Sprague-Dawley rat at 10 mg/kg; type: ADME, organism-based; conditions: in vivo
[27] = Antiproliferative activity against ALK constitutively activated human NCI-H3122 cells at 10 nM after 72 hrs by SRB or CCK8 assay relative to control; type: functional; conditions: NCI-H3122, 72 h
[28] = Antitumor activity against human KARPAS299 cells xenografted in nude mouse assessed as tumor growth inhibition at 50 mg/kg, po qd administered for 14 days measured twice per week during compound dosing relative to vehicle-treated control; type: functional; conditions: KARPAS-299, po, 336 h, read-out: TGI
[29] = Antitumor activity against human KARPAS299 cells xenografted in nude mouse assessed as tumor growth inhibition at 10 mg/kg, po qd administered for 14 days measured twice per week during compound dosing relative to vehicle-treated control; type: functional; conditions: KARPAS-299, po, 336 h, read-out: TGI
Mus musculus = assay: Toxicity in nude mouse xenografted with human KARPAS299 cells assessed as body weight loss at 10 to 50 mg/kg, po qd administered for 14 days; type: organism-based, KARPAS-299; conditions: in vivo, 336 h
[30] = Antitumor activity against human KARPAS299 cells xenografted in nude mouse assessed as tumor growth inhibition at 20 mg/kg, po qd administered for 14 days measured twice per week during compound dosing relative to vehicle-treated control; type: functional; conditions: KARPAS-299, po, 336 h, read-out: TGI
[31] = target: T1, ALK tyrosine kinase receptor; assay: Inhibition of ALK phosphorylation in human NCI-H3122 cells after 1 hr by Western blot method; type: cell-based
Target sequence in this assay (Q9UM73 19-1620 limits assumed): as the sequence (Q9UM73 19-1620 L1196M limits assumed) above, with M1178L counted along it

[32] = target: T1, ALK tyrosine kinase receptor; assay: Inhibition of ALK in human NCI-H3122 cells assessed as decrease in STAT3 phosphorylation after 1 hr by Western blot method; type: cell-based
Target sequence in this assay (Q9UM73 19-1620 limits assumed): as the sequence (Q9UM73 19-1620 L1196M limits assumed) above, with M1178L counted along it

[33] = target: T1, ALK tyrosine kinase receptor; assay: Inhibition of ALK in human NCI-H3122 cells assessed as decrease in Akt phosphorylation after 1 hr by Western blot method; type: cell-based
Target sequence in this assay (Q9UM73 19-1620 limits assumed): as the sequence (Q9UM73 19-1620 L1196M limits assumed) above, with M1178L counted along it

[34] = target: T1, ALK tyrosine kinase receptor; assay: Inhibition of ALK in human NCI-H3122 cells assessed as decrease in ERK phosphorylation after 1 hr by Western blot method; type: cell-based
Target sequence in this assay (Q9UM73 19-1620 limits assumed): as the sequence (Q9UM73 19-1620 L1196M limits assumed) above, with M1178L counted along it

KARPAS-299 = assay: Antitumor activity against human KARPAS299 cells xenografted in nude mouse assessed as tumor regression at 10 to 50 mg/kg, po qd administered for 14 days measured post last dose; type: functional, organism-based

SMILES: CC1(C)c2cc(C3CCN(CC4(O)CCOCC4)CC3)ccc2C(=O)c2c1[nH]c1cc(C#N)ccc21
IC50 [1]: > 12300 nM

SMILES: CC1(C)c2cc(C3CCN(CC4CCOCC4)CC3)ccc2C(=O)c2c1[nH]c1cc(C#N)ccc21
IC50 [1]: 2650 nM

IC50 [2]: 17.1 nM | Drug metabolism [4]: Metabolite_Detected
SMILES: CCc1cc2c(cc1N1CCN(CC(O)(CCC(=O)O)CC(=O)O)CC1)C(C)(C)c1[nH]c3cc(C#N)ccc3c1C2=O (stereo not given)
inhibition at 0.05 µM [3]: 3%

IC50 [2]: 1.5 nM | IC50 [5]: 4.2 nM | IC50 [9]: > 1000 nM | IC50 [10]: > 1000 nM | IC50 [11]: > 1000 nM | IC50 [12]: > 1000 nM | IC50 [13]: > 1000 nM | IC50 [14]: > 1000 nM | IC50 [15]: > 1000 nM | IC50 [16]: > 1000 nM | IC50 (Ephrin type-A receptor 2): > 1000 nM | IC50 [17]: > 1000 nM | IC50 [18]: > 1000 nM | half-life [19]: 5.5 h | AUC(0-inf) [20]: 6640 ng·h/mL | Vd [21]: 5 L/kg | clearance [22]: 12.2 mL/min/kg | Cmax [23]: 867 ng/mL | Tmax [24]: 4 h | AUC(0-inf) [25]: 11700 ng·h/mL | bioavailability [26]: 105%
SMILES: CCc1cc2c(cc1N1CCN(CC3(O)CCOCC3)CC1)C(C)(C)c1[nH]c3cc(C#N)ccc3c1C2=O [listing 1 of 2 here]
IC50 [6]: 24.4 nM | inhibition at 0.05 µM [3]: 80% | IC50 [7]: 16.7 nM | IC50 [8]: 22.6 nM | IC50 [1]: 30000 to 33400 nM

IC50 [2]: 2.4 nM
SMILES: CCc1cc2c(cc1N1CCN(CC3(O)CC(C)OC(C)C3)CC1)C(C)(C)c1[nH]c3cc(C#N)ccc3c1C2=O (stereo not given)
inhibition at 0.01 µM [27]: 40%

SMILES: C[C@@H](Oc1cc(-c2cnn(C3CCNCC3)c2)cnc1N)c1c(Cl)ccc(F)c1Cl [CRIZOTINIB]
IC50 [6]: 101 nM | IC50 [7]: 92.3 nM | IC50 [8]: 105 nM | inhibition in vivo at 50 mg/kg [28]: 109%

IC50 [2]: 7 nM
SMILES: CCc1cc2c(cc1N1CCN(CC3(O)CCCCC3)CC1)C(C)(C)c1[nH]c3cc(C#N)ccc3c1C2=O
inhibition at 0.05 µM [3]: 40%

SMILES: CCc1cc2c(cc1N1CCN(CC3(O)CCOCC3)CC1)C(C)(C)c1[nH]c3cc(C#N)ccc3c1C2=O.Cl
inhibition in vivo at 50 mg/kg [28]: 110% | inhibition in vivo at 10 mg/kg [29]: 110% | Activity (Mus musculus): Non-Toxic | inhibition in vivo at 20 mg/kg [30]: > 100%

IC50 [2]: 1.4 nM
SMILES: CCc1cc2c(cc1N1CCN(CC3(O)CCNCC3)CC1)C(C)(C)c1[nH]c3cc(C#N)ccc3c1C2=O
inhibition at 0.05 µM [3]: 5%

inhibition [31]: Dose-dependent effect | inhibition [32]: Dose-dependent effect | inhibition [33]: Dose-dependent effect | inhibition [34]: Dose-dependent effect
SMILES: CCc1cc2c(cc1N1CCN(CC3(O)CCOCC3)CC1)C(C)(C)c1[nH]c3cc(C#N)ccc3c1C2=O [listing 2 of 2 here]
Activity (KARPAS-299): Active
